Data set [1] has as its target Cholinesterase (Equus caballus) (UniProt P81908). The data set can be described thus: Inhibition of equine serum BChE at 50 uM using butyrylthiocholine iodide as substrate preincubated with enzyme for 20 mins followed by substrate addition and measured after 20 mins by Ellman's method. The format is cell-free. Conditions: time 40.0 min. (DTNB colorimetry detects thiols as they appear.)

For a further data set, the target named is Acetylcholinesterase (Electrophorus electricus, UniProt O42275). Kind of data set: Inhibition of electric eel AChE using acetylthiocholine iodide as substrate preincubated with enzyme for 20 mins followed by substrate addition and measured after 20 mins by Ellman's method.
Chain of Acetylcholinesterase (O42275 whole entry): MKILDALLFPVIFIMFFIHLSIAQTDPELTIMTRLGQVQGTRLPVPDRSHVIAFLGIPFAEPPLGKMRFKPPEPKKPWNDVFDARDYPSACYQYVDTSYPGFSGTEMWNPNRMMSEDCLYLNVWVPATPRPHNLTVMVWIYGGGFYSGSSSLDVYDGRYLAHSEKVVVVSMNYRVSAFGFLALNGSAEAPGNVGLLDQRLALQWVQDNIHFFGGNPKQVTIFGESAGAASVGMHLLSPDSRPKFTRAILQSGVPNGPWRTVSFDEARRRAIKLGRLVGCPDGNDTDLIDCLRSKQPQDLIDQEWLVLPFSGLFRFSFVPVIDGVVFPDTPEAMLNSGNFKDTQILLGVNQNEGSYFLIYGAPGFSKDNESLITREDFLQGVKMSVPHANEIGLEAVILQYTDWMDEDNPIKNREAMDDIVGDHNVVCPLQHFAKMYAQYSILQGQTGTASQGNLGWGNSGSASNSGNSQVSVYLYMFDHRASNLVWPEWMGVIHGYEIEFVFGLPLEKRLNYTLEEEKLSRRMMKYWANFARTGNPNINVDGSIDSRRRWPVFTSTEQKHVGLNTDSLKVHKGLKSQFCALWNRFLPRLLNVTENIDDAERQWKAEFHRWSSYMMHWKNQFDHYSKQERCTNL
The target of the next data set is Cholinesterase (Equus caballus, UniProt P81908). Kind of data set: Inhibition of equine serum BChE using butyrylthiocholine iodide as substrate preincubated with enzyme for 20 mins followed by substrate addition and measured after 20 mins by Ellman's method. The format is cell-free.
Chain of Cholinesterase (P81908 whole entry): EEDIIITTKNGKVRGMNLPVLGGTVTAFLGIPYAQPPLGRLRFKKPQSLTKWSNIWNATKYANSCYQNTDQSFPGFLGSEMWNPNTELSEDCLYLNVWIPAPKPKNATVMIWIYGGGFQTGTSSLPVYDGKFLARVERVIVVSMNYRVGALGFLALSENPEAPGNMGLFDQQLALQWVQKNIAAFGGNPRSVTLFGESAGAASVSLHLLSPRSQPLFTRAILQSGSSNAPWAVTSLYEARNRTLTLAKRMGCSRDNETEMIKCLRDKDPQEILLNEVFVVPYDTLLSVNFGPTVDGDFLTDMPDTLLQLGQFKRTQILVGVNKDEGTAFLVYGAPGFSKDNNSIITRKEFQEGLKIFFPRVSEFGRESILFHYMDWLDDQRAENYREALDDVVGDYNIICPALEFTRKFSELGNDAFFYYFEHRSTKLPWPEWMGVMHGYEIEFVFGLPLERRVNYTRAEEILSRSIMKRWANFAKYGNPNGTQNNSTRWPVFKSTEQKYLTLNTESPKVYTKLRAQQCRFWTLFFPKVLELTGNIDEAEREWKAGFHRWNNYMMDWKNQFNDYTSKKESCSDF
Data set [2] can be described thus: Selectivity index, ratio of IC50 for equine serum BChE to IC50 for electric eel AChE.
For data set [3], the target named is T1, Glycogen synthase kinase-3 beta (Homo sapiens, UniProt P49841). The data set can be described thus: Inhibition of GSK3-beta (unknown origin) at 10 uM incubated for 60 mins by ATP-Glo luminescent assay.
Target sequence in this assay (P49841 whole entry, looked up): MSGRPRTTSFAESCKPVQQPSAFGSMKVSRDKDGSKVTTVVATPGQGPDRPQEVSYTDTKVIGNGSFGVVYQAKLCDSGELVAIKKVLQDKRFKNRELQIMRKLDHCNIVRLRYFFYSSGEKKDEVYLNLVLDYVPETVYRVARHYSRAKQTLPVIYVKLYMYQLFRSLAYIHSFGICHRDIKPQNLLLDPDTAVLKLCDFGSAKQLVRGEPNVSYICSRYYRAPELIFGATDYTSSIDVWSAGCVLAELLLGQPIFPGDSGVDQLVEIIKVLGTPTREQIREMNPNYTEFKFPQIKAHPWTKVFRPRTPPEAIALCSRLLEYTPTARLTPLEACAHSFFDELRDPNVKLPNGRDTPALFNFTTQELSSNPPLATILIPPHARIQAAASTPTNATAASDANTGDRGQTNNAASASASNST
The subject of a further data set is SH-SY5Y. The data set can be described thus: Cytotoxicity against human SH-SY5Y cells assessed as reduction in cell viability at 10 uM incubated for 48 hrs by MTT assay. The format is toxicity, cell-based. On the technique in general: Tetrazolium dyes change colour on reduction, which living cells bring about.
The subject of the next data set is L02. Kind of data set: Cytotoxicity against human HL7702 cells assessed as reduction in cell viability at 10 uM incubated for 48 hrs by MTT assay. Conditions: l02, 48 h. The format is toxicity, cell-based.
Data set [4] deals with T1, Glycogen synthase kinase-3 beta. Kind of data set: Inhibition of GSK3-beta (unknown origin) incubated for 60 mins by ATP-Glo luminescent assay.
Target sequence in this assay (P49841 whole entry): as the sequence (P49841 whole entry, looked up) above

Each structure is given as a SMILES string.

Chain of Cholinesterase (Equus caballus) (P81908 whole entry): as the sequence (P81908 whole entry) above

What is called inhibition is the drop in the measured response relative to a control, in per cent. The IC50 is the concentration needed to halve the response being measured. A lower IC50 goes with greater potency in that assay. As for `O=C(NCCC1CCN(Cc2cccc([N+](=O)[O-])c2)CC1)c1ccc2c(c1)[nH]c1c(NC(=O)C3CC3)nccc12`, the inhibition in data set [1] amounted to 21.5%; in data set [3], 66.2%. Besides, the figures for the IC50 at Acetylcholinesterase and on Cholinesterase were 1.57 µM and above 50 µM, respectively. For the same compound, in data set [2], the Ratio IC50 is above 31.9.
Regarding `O=C(NCC1CCN(Cc2ccc(F)cc2)CC1)c1ccc2c(c1)[nH]c1c(NC(=O)C3CC3)nccc12`, the inhibition is 39.7% in data set [1] and 40.9% in data set [3]. The IC50 is 3.08 µM against Acetylcholinesterase and above 50 µM against Cholinesterase. Also, the Ratio IC50 in data set [2] was above 16.2.
The matching figures for `O=C(NCCC1CCN(Cc2c(Cl)cccc2Cl)CC1)c1ccc2c(c1)[nH]c1c(NC(=O)C3CC3)nccc12`: below 10%, 52.1%, 0.89 µM, above 50 µM and above 56.2.
`O=C(NCC1CCN(Cc2ccc(C(F)(F)F)cc2)CC1)c1ccc2c(c1)[nH]c1c(NC(=O)C3CC3)nccc12`: the inhibition is below 10% in data set [1] and 59.5% in data set [3]. The half-inhibitory concentration (IC50) was 10.4 µM against Acetylcholinesterase and above 50 µM at Cholinesterase. Moreover, the Ratio IC50 in data set [2] is above 4.81.
The matching figures for `O=C(NCCC1CCN(Cc2cc(F)cc(F)c2)CC1)c1ccc2c(c1)[nH]c1c(NC(=O)C3CC3)nccc12`: below 10%, 2.71%, 5.8 µM, above 50 µM and above 8.62.
As for `O=C(NCC1CCN(Cc2cc(F)cc(F)c2)CC1)c1ccc2c(c1)[nH]c1c(NC(=O)C3CC3)nccc12`, the inhibition in data set [1] came out at 10.4%. Also, the results for the IC50 against Acetylcholinesterase and against Cholinesterase were 5.04 µM and above 50 µM, respectively. For the same compound, in data set [2], the Ratio IC50 is above 9.92.
In the case of `O=C(NC1CCN(Cc2ccccc2F)CC1)c1ccc2c(c1)[nH]c1c(NC(=O)C3CC3)nccc12`, the inhibition in data set [1] came out at 30.8%; in data set [3], 84.6%. Moreover, the figures for the half-maximal inhibitory concentration (IC50) against Acetylcholinesterase and against Cholinesterase were 2.64 µM and above 50 µM, respectively. In data set [2], the Ratio IC50 is above 18.9.
In the same order, the values of `O=C(NCC1CCN(Cc2c(Cl)cccc2Cl)CC1)c1ccc2c(c1)[nH]c1c(NC(=O)C3CC3)nccc12` are below 10%, 11.3%, 0.34 µM, above 50 µM and above 147.
Turning to `O=C(NCCC1CCN(Cc2ccc(C(F)(F)F)cc2)CC1)c1ccc2c(c1)[nH]c1c(NC(=O)C3CC3)nccc12`, the inhibition in data set [1] is below 10%; in data set [3], 73.8%. Besides, the 50% inhibitory concentration (IC50) against Acetylcholinesterase was 31.2 µM; at Cholinesterase, above 50 µM. Also, the Ratio IC50 in data set [2] is above 1.6. For the same compound, the Activity entry in the data set with SH-SY5Y and in the data set with L02 was “Toxic” each time.
Take `COC(=O)c1ccc2c(c1)[nH]c1c(NC(=O)C3CC3)nccc12`: the IC50 is above 20 µM on Acetylcholinesterase, above 20 µM on Cholinesterase and 0.07 µM in data set [4].
On to `Cc1ccc(CN2CCC(CCNC(=O)c3ccc4c(c3)[nH]c3c(NC(=O)C5CC5)nccc34)CC2)cc1`, for which the inhibition was 44.3% in data set [1] and 62.7% in data set [3]. In addition, the figures for the half-inhibitory concentration (IC50) at Acetylcholinesterase and against Cholinesterase were 2.74 µM and above 50 µM, respectively. The Ratio IC50 in data set [2] was above 18.2.
In the same order, the values of `O=C(NC1CCN(Cc2cc(F)cc(F)c2)CC1)c1ccc2c(c1)[nH]c1c(NC(=O)C3CC3)nccc12` are below 10%, 41.9%, 33.5 µM, above 50 µM and above 1.49.
In the same order, the values of `O=C(NCCC1CCN(Cc2ccccc2)CC1)c1ccc2c(c1)[nH]c1c(NC(=O)C3CC3)nccc12` are 68.3%, -2.01%, 0.78 µM, 23.6 µM and 30.2.
In the same order, the values of `Cc1ccc(CN2CCC(NC(=O)c3ccc4c(c3)[nH]c3c(NC(=O)C5CC5)nccc34)CC2)cc1` are 23%, 10.5%, 8.56 µM, above 50 µM and above 5.84.
Take `O=C(NCC1CCN(Cc2cccc([N+](=O)[O-])c2)CC1)c1ccc2c(c1)[nH]c1c(NC(=O)C3CC3)nccc12`: the inhibition in data set [1] was below 10%; in data set [3] it was 52.1%. In addition, the half-inhibitory concentration (IC50) on Acetylcholinesterase was 2.05 µM; on Cholinesterase, above 50 µM. In addition, in data set [2], the Ratio IC50 was above 24.4.
Turning to `O=C(NCCC1CCN(Cc2ccc(Cl)cc2)CC1)c1ccc2c(c1)[nH]c1c(NC(=O)C3CC3)nccc12`, the inhibition in data set [1] was below 10%; in data set [3] it was 84.3%. Also, the half-maximal inhibitory concentration (IC50) is 14.9 µM at Acetylcholinesterase and above 50 µM against Cholinesterase. Besides, the Ratio IC50 in data set [2] is above 3.35. Further, the Activity entry in the data set with SH-SY5Y and in the data set on L02 was “Toxic” throughout.
For `O=C(NCC1CCN(Cc2ccccc2)CC1)c1ccc2c(c1)[nH]c1c(NC(=O)C3CC3)nccc12`, the inhibition in data set [1] was determined as 37.2%; in data set [3], 20.8%. Further, the figures for the IC50 at Acetylcholinesterase and at Cholinesterase were 1.73 µM and above 50 µM, respectively. Besides, the Ratio IC50 in data set [2] is 48.1.
The matching figures for `O=C(NC1CCN(Cc2cccc([N+](=O)[O-])c2)CC1)c1ccc2c(c1)[nH]c1c(NC(=O)C3CC3)nccc12`: 20.1%, 78%, 2.77 µM, above 50 µM and above 18.1.
In the same order, the values of `O=C(NC1CCN(Cc2ccc(C(F)(F)F)cc2)CC1)c1ccc2c(c1)[nH]c1c(NC(=O)C3CC3)nccc12` are below 10%, 71.9%, 13.9 µM, above 50 µM and above 3.6.
The matching figures for `O=C(NCCC1CCN(Cc2ccc(F)cc2)CC1)c1ccc2c(c1)[nH]c1c(NC(=O)C3CC3)nccc12`: 68.7%, 14.9%, 1.21 µM, 20.3 µM and 16.8.
`O=C(NCC1CCN(Cc2ccc(Cl)cc2)CC1)c1ccc2c(c1)[nH]c1c(NC(=O)C3CC3)nccc12`: the inhibition in data set [1] was below 10%; in data set [3] it was 11.7%. For the same compound, the half-maximal inhibitory concentration (IC50) against Acetylcholinesterase is 19.6 µM; against Cholinesterase, above 50 µM. Besides, the Ratio IC50 in data set [2] was above 2.55.
`O=C(NC1CCN(Cc2ccc(Cl)cc2)CC1)c1ccc2c(c1)[nH]c1c(NC(=O)C3CC3)nccc12`: the inhibition is below 10% in data set [1] and 57.9% in data set [3]. Besides, the half-inhibitory concentration (IC50) at Acetylcholinesterase was 18.9 µM; on Cholinesterase, above 50 µM. The Ratio IC50 in data set [2] was above 2.64.
In the same order, the values of `O=C(NCC1CCN(Cc2cccc(F)c2)CC1)c1ccc2c(c1)[nH]c1c(NC(=O)C3CC3)nccc12` are 32.6%, 11.1%, 2.24 µM, above 50 µM and above 22.3.
In the same order, the values of `O=C(NC1CCN(Cc2c(Cl)cccc2Cl)CC1)c1ccc2c(c1)[nH]c1c(NC(=O)C3CC3)nccc12` are below 10%, 21.9%, 2.01 µM, above 50 µM and above 24.9.
In the case of `O=C(NCC1CCN(Cc2ccccc2F)CC1)c1ccc2c(c1)[nH]c1c(NC(=O)C3CC3)nccc12`, the figures for the inhibition in data set [1] and in data set [3] were 55.6% and 42.1%, respectively. Further, the values for the half-maximal inhibitory concentration (IC50) on Acetylcholinesterase and against Cholinesterase were 0.84 µM and 34.2 µM, respectively. Besides, the Ratio IC50 in data set [2] worked out at 40.7.
As for `O=C(NC1CCN(Cc2cccc(F)c2)CC1)c1ccc2c(c1)[nH]c1c(NC(=O)C3CC3)nccc12`, the values for the inhibition in data set [1] and in data set [3] were 30.8% and 79.8%, respectively. Further, the IC50 was 2.22 µM against Acetylcholinesterase and above 50 µM against Cholinesterase. Also, the Ratio IC50 in data set [2] was above 22.5.
On to `O=C(NC1CCN(Cc2ccc(F)cc2)CC1)c1ccc2c(c1)[nH]c1c(NC(=O)C3CC3)nccc12`, for which the inhibition in data set [1] is 36.9%; in data set [3], 74.6%. Further, the results for the half-inhibitory concentration (IC50) against Acetylcholinesterase and at Cholinesterase were 2.14 µM and above 50 µM, respectively. In addition, in data set [2], the Ratio IC50 is above 23.4.
Consider `COc1ccc2c(c1)[nH]c1c(C)nccc12` [HARMINE], for which the inhibition in data set [1] stood at 74.1%. The results for the concentration for half-maximal inhibition (IC50) at Acetylcholinesterase and against Cholinesterase were 10.1 µM and 13.6 µM, respectively.
In the case of `Cc1ccc(CN2CCC(CNC(=O)c3ccc4c(c3)[nH]c3c(NC(=O)C5CC5)nccc34)CC2)cc1`, the inhibition in data set [1] was 15.3%; in data set [3], 46.4%. For the same compound, the IC50 on Acetylcholinesterase was 3.02 µM; against Cholinesterase, above 50 µM. Further, in data set [2], the Ratio IC50 was above 16.6.
In the same order, the values of `O=C(NC1CCN(Cc2ccccc2)CC1)c1ccc2c(c1)[nH]c1c(NC(=O)C3CC3)nccc12` are 52.6%, 63.3%, 2.33 µM, 38.8 µM and 16.6.
The matching figures for `O=C(NCCC1CCN(Cc2cccc(F)c2)CC1)c1ccc2c(c1)[nH]c1c(NC(=O)C3CC3)nccc12`: 65.4%, 47.8%, 0.96 µM, 19.9 µM and above 50.1.
